Test results: US4001218A, “Penicillins” (Bayer Aktiengesellschaft, priority 1972, dated 1977)

What was measured:
Klebsiella 62 = assay: animal experiment, Klebsiella 62 infection; conditions: s.c. 2 × 3000 Units per animal, experiment with Ex.1
Psdm. aerug. F 41 [1] = assay: animal experiment, Psdm. aerug. F 41 infection; conditions: s.c. 4 × 3000 Units per animal
Klebsiella 63 [2] = assay: animal experiment, Klebsiella 63 infection; conditions: s.c. 2 × 3000 Units per animal
Lactobacillus sp. = assay: turbidity test at 100 μg/ml; type: cell-based; conditions: 24 hours
[3] = tested on: Pasteurella pseudotuberculosis; type: cell-based; conditions: 100 μg/ml, 24 hours
E. coli C 165 = assay: MIC, test tube series dilution test, E. coli C 165; type: cell-based; conditions: 24 hours, 37°C
[4] = tested on: Staphylococcus aureus 133; assay: turbidity test at 100 μg/ml; type: cell-based; conditions: 24 hours
Staph. aureus 1756 = assay: MIC, test tube series dilution test, Staph. aureus 1756; type: cell-based, Staphylococcus aureus; conditions: Staph. aureus 1756; 24 hours, 37°C
Bacteroides sp. = assay: turbidity test at 100 μg/ml; type: cell-based; conditions: 24 hours
Salmonella sp. = assay: turbidity test at 100 μg/ml; type: cell-based
Shigella sp. = assay: turbidity test at 100 μg/ml; type: cell-based
Brucella sp. = type: cell-based; conditions: 100 μg/ml, 24 hours
Enterococcus 9790 = assay: MIC, test tube series dilution test, Enterococcus 9790; type: cell-based; conditions: 24 hours, 37°C
Clostridium botulinium = type: cell-based
Klebsiella 63 [5] = assay: turbidity test at 100 μg/ml; type: cell-based; conditions: 24 hours
[6] = tested on: Neisseria cartarrhalis sp.; assay: turbidity test at 100 μg/ml; type: cell-based; conditions: 24 hours
Haemophilus influenzae = assay: turbidity test at 100 μg/ml; type: cell-based; conditions: 24 hours
Proteus morg. 932 = assay: MIC, test tube series dilution test, Proteus morg. 932; type: cell-based; conditions: 24 hours, 37°C
Klebsiella K 10 [7] = assay: MIC, test tube series dilution test, Klebsiella K 10; type: cell-based; conditions: 24 hours, 37°C
Psdm. aerug. Walter = assay: MIC, test tube series dilution test, Psdm. aerug. Walter; type: cell-based, Pseudomonas aeruginosa; conditions: Psdm. aerug. Walter; 24 hours, 37°C
Klebsiella 63 [8] = assay: MIC, test tube series dilution test, Klebsiella 63; type: cell-based; conditions: Klebsiella 63; 24 hours, 37°C
Streptococcus pyogenes W = assay: turbidity test at 100 μg/ml; type: cell-based; conditions: 24 hours
Enterobacter sp. = assay: turbidity test at 100 μg/ml; type: cell-based; conditions: 24 hours
Serratia sp. = assay: turbidity test at 100 μg/ml; type: cell-based; conditions: 24 hours
E. coli 183/58 = assay: MIC, test tube series dilution test, E. coli 183/58; type: cell-based; conditions: 24 hours, 37°C
Clostridium tetani = type: cell-based; conditions: 100 μg/ml, 24 hours
Borrelia sp. = assay: turbidity test at 100 μg/ml; type: cell-based; conditions: 24 hours
[9] = tested on: Proteus, indole-positive, sp.; assay: turbidity test at 100 μg/ml; type: cell-based; conditions: 24 hours
Aeromonas hydrophila sp. = assay: turbidity test at 100 μg/ml; type: cell-based; conditions: 24 hours
[10] = tested on: Corynebacterium diphteriae gravis; assay: turbidity test at 100 μg/ml; type: cell-based; conditions: 24 hours
Enterococcus sp. = assay: turbidity test at 100 μg/ml; type: cell-based; conditions: 24 hours
[11] = tested on: Corynebacterium pyogenes M; assay: turbidity test at 100 μg/ml; type: cell-based; conditions: 24 hours
Proteus vulg. 1017 = type: cell-based, Proteus vulgaris; conditions: Proteus 1017; 24 hours, 37°C
E. Coli c165 = assay: turbidity test at 100 μg/ml; type: cell-based; conditions: 24 hours
Klebsiella K 10 [12] = assay: turbidity test at 100 μg/ml; type: cell-based; conditions: 24 hours
E. coli 14 [13] = type: cell-based; conditions: E. coli 14; 24 hours, 37°C
[14] = tested on: Proteus, indole-negative, sp.; assay: turbidity test at 100 μg/ml; type: cell-based; conditions: 24 hours
Psdm. aerug. F 41 [15] = assay: MIC, test tube series dilution test, Psdm. aerug. F 41; type: cell-based, Pseudomonas aeruginosa; conditions: Psdm. aerug. F 41; 24 hours, 37°C
[16] = tested on: Diplococcus pneumoniae sp.; assay: turbidity test at 100 μg/ml; type: cell-based; conditions: 24 hours
E. coli A 261 = assay: MIC, test tube series dilution test, E. coli A 261; type: cell-based; conditions: 24 hours, 37°C
[17] = tested on: Bordetella bronchiseptica; assay: turbidity test at 100 μg/ml; type: cell-based; conditions: 24 hours
E. coli 14 [18] = assay: turbidity test at 100 μg/ml; type: cell-based; conditions: 24 hours
Staph. aureus 133 = type: cell-based, Staphylococcus aureus; conditions: Staph. aureus 133; 24 hours, 37°C
[19] = tested on: Pseudomonas aeruginosa sp.; assay: turbidity test at 100 μg/ml; type: cell-based; conditions: 24 hours
Proteus vulgaris 1017 = assay: turbidity test at 100 μg/ml; type: cell-based; conditions: 24 hours
[20] = 1st day after infection, experiment with Ex.22
[21] = 1st day after infection, experiment with Ex.29
[22] = 2nd day after infection, experiment with Ex.22
[23] = 2nd day after infection, experiment with Ex.29
[24] = 3rd day after infection, experiment with Ex.29
[25] = 5th day after infection, experiment with Ex.29
[26] = 1st day after infection, experiment with Ex.41
[27] = 1st day after infection, experiment with Ex.7

`CC1(C)S[C@@H]2[C@H](NC(=O)C(C(=O)O)c3ccccc3)C(=O)N2[C@H]1C(=O)O` (some centres unmarked) [Carbenicillin, reference compound] was tested, and the Surviving animals (Klebsiella 62; 1st day after infection) was 0%, the Surviving animals (Psdm. aerug. F 41 [1]; [20]) was 50% and the Surviving animals (Psdm. aerug. F 41 [1]; [21]) was 80%. For the same compound, the Surviving animals (Psdm. aerug. F 41 [1]; [22]) was 0%, the Surviving animals (Psdm. aerug. F 41 [1]; [23]) was 30% and the Surviving animals (Psdm. aerug. F 41 [1]; [24]) was 30%. For the same compound, the Surviving animals (Psdm. aerug. F 41 [1]; [25]) was 20%, the Surviving animals (Klebsiella 63 [2]; [26]) was 0% and the Surviving animals (Klebsiella 63 [2]; [27]) was 0%.
`CC1(C)S[C@@H]2[C@H](NC(=O)[C@H](NC(=O)c3ccc(NC(=O)C4CC4)cc3)c3ccccc3)C(=O)N2[C@H]1C(=O)O` [Example 1, sodium D(-)-α-(4-cyclopropanecarbonylamino-benzoylamino)-benzylpenicillin] was tested, and the degree of turbidity (Lactobacillus sp.) was “non-turbid”, the degree of turbidity [3] was “non-turbid” and the MIC (E. coli C 165) was 16 U/ml. For the same compound, the degree of turbidity [4] was “non-turbid”, the Surviving animals (Klebsiella 62; 1st day after infection) was 100% and the Surviving animals (Klebsiella 62; 2nd day after infection) was 100%. For the same compound, the Surviving animals (Klebsiella 62; 3rd day after infection) was 50%, the Surviving animals (Klebsiella 62; 5th day after infection) was 50% and the MIC (Staph. aureus 1756) was 64 U/ml. For the same compound, the degree of turbidity (Bacteroides sp.) was “non-turbid”, the degree of turbidity (Salmonella sp.) was “non-turbid” and the degree of turbidity (Shigella sp.) was “non-turbid”. The degree of turbidity (Brucella sp.) was “non-turbid”, the MIC (Enterococcus 9790) was ~ 8 U/ml and the degree of turbidity (Clostridium botulinium) was “non-turbid”. The degree of turbidity (Klebsiella 63 [5]) was “non-turbid”, the degree of turbidity [6] was “non-turbid” and the degree of turbidity (Haemophilus influenzae) was “non-turbid”. The MIC (Proteus morg. 932) was 8 U/ml, the MIC (Klebsiella K 10 [7]) was 64 U/ml and the MIC (Psdm. aerug. Walter) was 16 U/ml. The MIC (Klebsiella 63 [8]) was 64 U/ml, the degree of turbidity (Streptococcus pyogenes W) was “non-turbid” and the degree of turbidity (Enterobacter sp.) was “non-turbid”. The degree of turbidity (Serratia sp.) was “non-turbid”, the MIC (E. coli 183/58) was 16 U/ml and the degree of turbidity (Clostridium tetani) was “non-turbid”. For the same compound, the degree of turbidity (Borrelia sp.) was “non-turbid”, the degree of turbidity [9] was “non-turbid” and the degree of turbidity (Aeromonas hydrophila sp.) was “non-turbid”. For the same compound, the degree of turbidity [10] was “non-turbid”, the degree of turbidity (Enterococcus sp.) was “non-turbid” and the degree of turbidity [11] was “non-turbid”. For the same compound, the MIC (Proteus vulg. 1017) was under 32 U/ml, the degree of turbidity (E. Coli c165) was “non-turbid” and the degree of turbidity (Klebsiella K 10 [12]) was “non-turbid”. For the same compound, the MIC (E. coli 14 [13]) was 4 U/ml, the degree of turbidity [14] was “non-turbid” and the MIC (Psdm. aerug. F 41 [15]) was 32 U/ml. For the same compound, the degree of turbidity [16] was “non-turbid”, the MIC (E. coli A 261) was over 256 U/ml and the degree of turbidity [17] was “non-turbid”. The degree of turbidity (E. coli 14 [18]) was “non-turbid”, the MIC (Staph. aureus 133) was under 1 U/ml and the degree of turbidity [19] was “non-turbid”. For the same compound, the degree of turbidity (Proteus vulgaris 1017) was “non-turbid”.
`CC1(C)S[C@@H]2[C@H](NC(=O)[C@H](NC(=O)c3ccc(NC(=O)C4CCCC4)cc3)c3ccccc3)C(=O)N2[C@H]1C(=O)O` [Example 7, sodium D(-)-α-(4-cyclopentanecarbonylamino-benzoylamino)-benzylpenicillin] gave an MIC (E. coli C 165) of 8 U/ml, an MIC (Staph. aureus 1756) of 64 U/ml and an MIC (Enterococcus 9790) of 8 U/ml. The MIC (Proteus morg. 932) was 256 U/ml, the MIC (Klebsiella K 10 [7]) was 32 U/ml and the MIC (Psdm. aerug. Walter) was 32 U/ml. For the same compound, the MIC (Klebsiella 63 [8]) was 32 U/ml, the MIC (E. coli 183/58) was 8 U/ml and the MIC (Proteus vulg. 1017) was 32 U/ml. For the same compound, the MIC (E. coli 14 [13]) was under 1 U/ml, the MIC (Psdm. aerug. F 41 [15]) was 32 U/ml and the MIC (E. coli A 261) was over 256 U/ml. For the same compound, the MIC (Staph. aureus 133) was under 1 U/ml, the Surviving animals (Klebsiella 63 [2]; [27]) was 100% and the Surviving animals (Klebsiella 63 [2]; 2nd day after infection, experiment with Ex.7) was 100%. It also gave a Surviving animals (Klebsiella 63 [2]; 3rd day after infection, experiment with Ex.7) of 20%.
`COc1cc(C(=O)Nc2ccc(C(=O)N[C@@H](C(=O)N[C@@H]3C(=O)N4[C@@H]3SC(C)(C)[C@@H]4C(=O)O)c3ccccc3)cc2)cc(OC)c1OC` [Example 22, Sodium D(-)-α-(4-[3,4,5-trimethoxybenzoylaminobenzoylamino])-benzylpenicillin] was tested, and the Surviving animals (Psdm. aerug. F 41 [1]; [20]) was 80%, the Surviving animals (Psdm. aerug. F 41 [1]; [22]) was 80% and the Surviving animals (Psdm. aerug. F 41 [1]; 3rd day after infection, experiment with Ex.22) was 80%. For the same compound, the MIC (Proteus vulg. 1017) was ~ 16 U/ml, the MIC (E. coli A 261) was over 256 U/ml and the MIC (Staph. aureus 133) was under 1 U/ml.
With `CC1(C)S[C@@H]2[C@H](NC(=O)[C@H](NC(=O)c3ccc(NC(=O)c4ccc(N)cc4)cc3)c3ccccc3)C(=O)N2[C@H]1C(=O)O` [Example 29, sodium D(-)-α-[4-(4-aminobenzoylamino)-benzoylamino] -benzylpenicillin] the MIC (E. coli C 165) was 4 U/ml, the Surviving animals (Psdm. aerug. F 41 [1]; [21]) was 100% and the Surviving animals (Psdm. aerug. F 41 [1]; [23]) was 80%. For the same compound, the Surviving animals (Psdm. aerug. F 41 [1]; [24]) was 70%, the Surviving animals (Psdm. aerug. F 41 [1]; [25]) was 70% and the MIC (Staph. aureus 1756) was 32 U/ml. For the same compound, the MIC (Enterococcus 9790) was 4 U/ml, the MIC (Proteus morg. 932) was over 256 U/ml and the MIC (Klebsiella K 10 [7]) was 128 U/ml. It also gave an MIC (Psdm. aerug. Walter) of 32 U/ml, an MIC (Klebsiella 63 [8]) of 64 U/ml and an MIC (E. coli 183/58) of 16 U/ml. For the same compound, the MIC (Proteus vulg. 1017) was 256 U/ml, the MIC (E. coli 14 [13]) was under 1 U/ml and the MIC (Psdm. aerug. F 41 [15]) was ~ 32 U/ml. The MIC (E. coli A 261) was over 256 U/ml and the MIC (Staph. aureus 133) was under 1 U/ml.
In the case of `CC1(C)S[C@@H]2[C@H](NC(=O)[C@H](NC(=O)c3ccc(NC=O)cc3)c3ccccc3)C(=O)N2[C@H]1C(=O)O` [Example 41, Sodium D(-)-α -(4-formylamino-benzoylamino)-benzylpenicillin], the MIC (E. coli C 165) is reported as 32 U/ml, the MIC (Staph. aureus 1756) is reported as 32 U/ml and the MIC (Enterococcus 9790) is reported as 8 U/ml. It also gave an MIC (Klebsiella K 10 [7]) of 128 U/ml, an MIC (Psdm. aerug. Walter) of 64 U/ml and an MIC (Klebsiella 63 [8]) of 128 U/ml. It also gave an MIC (E. coli 183/58) of 64 U/ml, an MIC (Proteus vulg. 1017) of 64 U/ml and an MIC (E. coli 14 [13]) of 8 U/ml. For the same compound, the MIC (Psdm. aerug. F 41 [15]) was 32 U/ml, the MIC (E. coli A 261) was over 256 U/ml and the MIC (Staph. aureus 133) was under 1 U/ml. For the same compound, the Surviving animals (Klebsiella 63 [2]; [26]) was 80%, the Surviving animals (Klebsiella 63 [2]; 2nd day after infection, experiment with Ex.41) was 50% and the Surviving animals (Klebsiella 63 [2]; 3rd day after infection, experiment with Ex.41) was 50%. The Surviving animals (Klebsiella 63 [2]; 5th day after infection, experiment with Ex.41) was 50%.
